Reference: patent US9399072B2, “Methods of treatment of pancreatic cancer” (Abraxis BioScience, LLC, priority 2010, dated 2016)

What was measured:
[1] = test system: locally advanced pancreatic cancer; conditions: 126 patients with locally advanced pancreatic cancer; cited from earlier work
[2] = test system: pancreatic cancer; conditions: in vivo; cited from earlier work
[3] = test system: gemcitabine-resistant pancreatic cancer; conditions: second-line, small studies; cited from earlier work
[4] = Phase I study of Nab-paclitaxel with vandetanib: MTD, DLT, adverse events; type: in vivo, human
Excerpt: Patients were randomized to one of two cohorts. […] A 3+3 design was used.

In the case of `Nc1ccn([C@@H]2O[C@H](CO)[C@@H](O)C2(F)F)c(=O)n1` [gemcitabine], the median overall survival [1] is listed as 5.7 months, the “median time to disease progression” value [1] is listed as 2.1 months and the median overall survival [2] is listed as 6.0 months. The “median progression free survival” value [2] was 3.5 months.

For `CC(=O)O[C@H]1C(=O)[C@@]2(C)[C@H]([C@H](OC(=O)c3ccccc3)[C@]3(O)C[C@H](OC(=O)[C@H](O)[C@@H](NC(=O)c4ccccc4)c4ccccc4)C(C)=C1C3(C)C)[C@]1(OC(C)=O)CO[C@@H]1C[C@@H]2O` [paclitaxel], the median overall survival [3] is given as 17.5 weeks and the response rate [3] is given as 6%.

In the case of `O=c1[nH]cc(F)c(=O)[nH]1` [5-FU, 5-fluororuracil], the median overall survival [1] is listed as 4.2 months and the “median time to disease progression” value [1] is listed as 0.9 months.

For `COc1cc2c(Nc3ccc(Br)cc3F)ncnc2cc1OCC1CCN(C)CC1` [vandetanib], the MTD ([4]; cohort A: daily, combined with 100 mg/m^2 Nab-paclitaxel weekly for three out of four weeks) was 300 mg and the MTD ([4]; cohort B: daily, in combination with 260 mg/m^2 Nab-paclitaxel every three weeks) was 300 mg.
